Data as given in ChEMBL document CHEMBL1154800, “TDAE-assisted synthesis of new imidazo[2,1-b]thiazole derivatives as anti-infectious agents” (2010).
Converted amounts (≈) assume the structure as drawn. The source made the active and inactive calls. The calls are words filed in the database; no cut-off is given here.

Legend:
Staphylococcus aureus [1] = assay: Antimicrobial activity against Staphylococcus aureus ATCC 6538 by disk diffusion method; format: functional
Candida albicans [2] = assay: Antimicrobial activity against Candida albicans ATCC 2091 assessed as minimum microbial concentration after 24 hrs by microplate assay; format: functional
Candida albicans [3] = assay: Antimicrobial activity against Candida albicans ATCC 2091 after 48 hrs by microplate assay; format: functional; conditions: ATCC 2091, 48 h
Pseudomonas aeruginosa [4] = assay: Antimicrobial activity against Pseudomonas aeruginosa ATCC 15442 by disk diffusion method; format: functional
Pichia kudriavzevii [5] = assay: Antimicrobial activity against Candida krusei ATCC 6258 by disk diffusion method; format: functional
Escherichia coli [6] = assay: Antimicrobial activity against Escherichia coli ATCC 10536 after 24 hrs assessed as minimum microbial concentration by microplate assay; format: functional
Candida tropicalis [7] = assay: Antimicrobial activity against Candida tropicalis IP 2031 by disk diffusion method; format: functional
Candida tropicalis [8] = assay: Antimicrobial activity against Candida tropicalis IP 2031 assessed as minimum microbial concentration after 24 hrs by microplate assay; format: functional
Enterococcus hirae [9] = assay: Antimicrobial activity against Enterococcus hirae ATCC 10541 by disk diffusion method; format: functional
Escherichia coli [10] = assay: Antimicrobial activity against Escherichia coli ATCC 10536 after 24 hrs by microplate assay; format: functional
Nakaseomyces glabratus [11] = assay: Antimicrobial activity against Candida glabrata ATCC 90030 by disk diffusion method; format: functional
Nakaseomyces glabratus [12] = assay: Antimicrobial activity against Candida glabrata ATCC 90030 assessed as minimum microbial concentration after 48 hrs by microplate assay; format: functional
Staphylococcus aureus [13] = assay: Antimicrobial activity against Staphylococcus aureus ATCC 6538 assessed as minimum microbial concentration after 24 hrs by microplate assay; format: functional
Candida albicans [14] = assay: Antimicrobial activity against Candida albicans ATCC 2091 by disk diffusion method; format: functional
Candida tropicalis [15] = assay: Antimicrobial activity against Candida tropicalis IP 2031 after 48 hrs by microplate assay; format: functional; conditions: IP 2031, 48 h
Staphylococcus aureus [16] = assay: Antimicrobial activity against Staphylococcus aureus ATCC 6538 after 24 hrs by microplate assay; format: functional
Nakaseomyces glabratus [17] = assay: Antimicrobial activity against Candida glabrata ATCC 90030 after 48 hrs by microplate assay; format: functional; conditions: ATCC 90030, 48 h
Pichia kudriavzevii [18] = assay: Antimicrobial activity against Candida krusei ATCC 6258 assessed as minimum microbial concentration after 48 hrs by microplate assay; format: functional
Escherichia coli [19] = assay: Antimicrobial activity against Escherichia coli ATCC 10536 by disk diffusion method; format: functional
Pichia kudriavzevii [20] = assay: Antimicrobial activity against Candida krusei ATCC 6258 after 48 hrs by microplate assay; format: functional; conditions: ATCC 6258, 48 h
Pseudomonas aeruginosa [21] = assay: Antimicrobial activity against Pseudomonas aeruginosa ATCC 15442 after 24 hrs by microplate assay; format: functional, organism-based
Enterococcus hirae [22] = assay: Antimicrobial activity against Enterococcus hirae ATCC 10541 after 24 hrs by microplate assay; format: functional, organism-based

Molecule	diameter of the inhibition zone (DIZ) (Staphylococcus aureus [1])	MIC (Candida albicans [3]) [µg/mL]	diameter of the inhibition zone (DIZ) (Pseudomonas aeruginosa [4])	diameter of the inhibition zone (DIZ) (Pichia kudriavzevii [5])	diameter of the inhibition zone (DIZ) (Candida tropicalis [7]) [mm]	diameter of the inhibition zone (DIZ) (Enterococcus hirae [9])	diameter of the inhibition zone (DIZ) (Nakaseomyces glabratus [11])	Activity (Staphylococcus aureus [13]) [µg/mL]	diameter of the inhibition zone (DIZ) (Candida albicans [14])	MIC (Candida tropicalis [15]) [µg/mL]	MIC (Staphylococcus aureus [16]; ATCC 6538, 24 h) [µg/mL]	MIC (Nakaseomyces glabratus [17]) [µg/mL]	diameter of the inhibition zone (DIZ) (Escherichia coli [19])	MIC (Pichia kudriavzevii [20]) [µg/mL]	also measured
O=[N+]([O-])c1c(CCl)nc2sccn12	18 mm	62.5 (≈ 287 µM)	11 mm	20 mm	25	11 mm	18 mm	250	16 mm	15.6 (≈ 71.7 µM)	125 (≈ 574 µM)	62.5 (≈ 287 µM)	14 mm	62.5 (≈ 287 µM)	Activity (Candida albicans [2]): 62.5 µg/mL; Activity (Escherichia coli [6]): 250 µg/mL; Activity (Candida tropicalis [8]): 15.6 µg/mL; MIC (Escherichia coli [10]; ATCC 10536, 24 h): 125 µg/mL (≈ 574 µM); Activity (Nakaseomyces glabratus [12]): 62.5 µg/mL; Activity (Pichia kudriavzevii [18]): 62.5 µg/mL
O=C1Nc2ccccc2C1(O)Cc1nc2sccn2c1[N+](=O)[O-] (stereo not drawn)	10 mm	500 (≈ 1510 µM)	9 mm	inactive	8	inactive	inactive	500	inactive	62.5 (≈ 189 µM)	500 (≈ 1510 µM)	> 500	inactive	> 500	
COLISTIN															MIC (Escherichia coli [10]): 8.12 µg/mL; MIC (Staphylococcus aureus [16]): 0.4 µg/mL
COC(=O)C(O)(Cc1nc2sccn2c1[N+](=O)[O-])C(F)(F)F (stereo not drawn)	inactive		inactive	inactive	33	inactive	inactive		inactive	3.9 (≈ 11.5 µM)			inactive		
O=[N+]([O-])c1c(CBr)nc2sccn12	18 mm	125 (≈ 477 µM)	11 mm	23 mm	29	11 mm	20 mm	250	17 mm	15.6 (≈ 59.5 µM)	125 (≈ 477 µM)	125 (≈ 477 µM)	9 mm	62.5 (≈ 238 µM)	Activity (Candida albicans [2]): 125 µg/mL; Activity (Candida tropicalis [8]): 15.6 µg/mL; Activity (Nakaseomyces glabratus [12]): 250 µg/mL; Activity (Pichia kudriavzevii [18]): 62.5 µg/mL
CN1C(=O)C(O)(Cc2nc3sccn3c2[N+](=O)[O-])c2ccccc21 (stereo not drawn)	inactive		inactive	inactive	12	inactive	inactive		inactive	125 (≈ 363 µM)			inactive		
CC(=O)N1C(=O)C(O)(Cc2nc3sccn3c2[N+](=O)[O-])c2ccccc21 (stereo not drawn)	16 mm		inactive	inactive	14	inactive	inactive	62.5	inactive	14 (≈ 37.6 µM)	31.2 (≈ 83.8 µM)		inactive		
Cc1nc2sccn2c1[N+](=O)[O-]	inactive	> 500	inactive	inactive	8	inactive	inactive		inactive	31.2 (≈ 170 µM)		> 500	inactive	> 500	
CCOC(=O)/C=C/c1nc2sccn2c1[N+](=O)[O-]	inactive		inactive	inactive	21	inactive	inactive		inactive	15.6 (≈ 58.4 µM)			inactive		
GENTAMICIN															inhibition zone (IZ) (Staphylococcus aureus [1]): 20 mm; MIC (Pseudomonas aeruginosa [21]): 8.12 µg/mL; MIC (Enterococcus hirae [22]): 25 µg/mL; inhibition zone (IZ) (Pseudomonas aeruginosa [4]): 19 mm; inhibition zone (IZ) (Enterococcus hirae [9]): 18 mm; inhibition zone (IZ) (Escherichia coli [19]): 19 mm
C[C@@H]1[C@H](O)[C@@H](C)/C=C/C=C/C=C/C=C/C=C/C=C/C=C/[C@H](O[C@@H]2O[C@H](C)[C@@H](O)[C@H](N)[C@@H]2O)C[C@@H]2O[C@](O)(C[C@@H](O)C[C@@H](O)[C@H](O)CC[C@@H](O)C[C@@H](O)CC(=O)O[C@H]1C)C[C@H](O)[C@H]2C(=O)O [AMPHOTERICIN B]		0.16 (≈ 0.173 µM)		18 mm	8		22 mm		22 mm	12.5 (≈ 13.5 µM)		0.31 (≈ 0.335 µM)		0.62 (≈ 0.671 µM)	
